Reference: patent US20030166601A1, “Novel colloid synthetic vectors for gene therapy” (priority 1999, published 2003)

Test system: CD-1 mice
Assay: Luciferase expression in organs after intravenous injection of pCILuc complexes
Format: in vivo
Conditions: for Luciferase RLU/20 μl lysate heart / Luciferase RLU/20 μl lysate kidney / Luciferase RLU/20 μl lysate liver / Luciferase RLU/20 μl lysate lung / Luciferase RLU/20 μl lysate spleen: 40 μg pCILuc i.v., 5 h; for Luciferase activity heart / Luciferase activity kidney / Luciferase activity liver / Luciferase activity lung / Luciferase activity spleen: Table 5
Experimental: Substituted aminoethanols (cationic compounds) were prepared as described in Examples 1-34. Their gene delivery ability was studied in vivo by intravenous injection (Table 1 and 2) using a standard method. The preparations were administered via tail vein injection to mice and gene expression determined after 5 hours. Female CD-1 mice, 13-15 g, were purchased from Charles River Inc. Forty microgram of pCILuc complexed with GC lipids or GC lipid:Chol dispersion as indicated weight ratios. After 5 h, mice were sacrificed and organs were collected. Organs were homogenized in 0.5 ml of lysis buffer and 20 μl of supernatant was used for luciferase assay. Luciferase activity was represented as a mean of relative light unit (RLU) of four mice. The lipids were either used alone or combined with cholesterol and complexed with a luciferase reporter gene plasmid by a standard procedure at a range of weight and charge ratios. For the in vivo screen, 40 μg of pCILuc was complexed with the formulation and injected into the mice.
All compounds were evaluated for in vivo activity. Two critical factors were examined, formulation with or without cholesterol and the ratio of cationic lipid to DNA. Cholesterol was tested at 1:1 mole ratio of lipid:chol. The studies were performed with a dose of 40 μg of pCILuc complexed with cationic lipid or lipid: Chol (1:1 mole ratio) injected i.v. into CD-1 mice and then luciferase activity in different organs determined 5 h later. The first evaluation included all of 14 GC-lipids at weight ratios of 2 and 10 (GC lipid to DNA). It was performed by four separated experiments. Each time cationic liposome DOTAP:Chol was used as a standard control.
Measurements were repeated with lipids GC-030, GC-034 and GC-029 at wider weight ratios than the first experiment. Luciferase activity is represented as a mean of relative light unit (RLU) of four mice. WR means weight ratio of GC lipids to DNA. The transfection activity was represented by luciferase activity RLU/organ. […] The transfection activity increased with the increased weight ratio (GC lipids to DNA). Inclusion of cholesterol can change the biodistribution of gene expression in the different organs examined. […] However this function of cholesterol was not seen with GC-034.

Q: Which “Luciferase RLU/20 μl lysate heart” value (WR 2) does the source give for `CCCCCCCCCCCCCCCCCC(CCCCCCCCCCCCCCCCC)NC(=O)CNC(=O)CNC(=O)[C@@H](N)CCCN.O=C(O)C(F)(F)F.O=C(O)C(F)(F)F` [GC-039] here?
A: The value was 50 RLU/20 μl lysate.

Q: What about the “Luciferase RLU/20 μl lysate kidney” value (WR 2) of the same compound?
A: The value was 45 RLU/20 μl lysate.

Q: And the “Luciferase RLU/20 μl lysate liver” value (WR 2)?
A: The value was 48 RLU/20 μl lysate.

Q: What about the “Luciferase RLU/20 μl lysate lung” value (WR 2) of the same compound?
A: The value was 52 RLU/20 μl lysate.

Q: What about the “Luciferase RLU/20 μl lysate heart” value (WR 10) of the same compound?
A: The value was 45 RLU/20 μl lysate.

Q: And the “Luciferase RLU/20 μl lysate kidney” value (WR 10)?
A: Its value is 54 RLU/20 μl lysate.

Q: And the “Luciferase RLU/20 μl lysate liver” value (WR 10)?
A: The value was 212 RLU/20 μl lysate.

Q: What about the “Luciferase RLU/20 μl lysate lung” value (WR 10) of the same compound?
A: Its value is 753 RLU/20 μl lysate.

Q: And the “Luciferase RLU/20 μl lysate spleen” value (WR 10, spleen)?
A: Its value is 845 RLU/20 μl lysate.

Q: And the “Luciferase RLU/20 μl lysate spleen” value (WR (lipid to DNA) 2, spleen)?
A: The value was 288 RLU/20 μl lysate.

Q: What does the source list for `CCCCCCCCCCCCCCCCCCN(CCCCCCCCCCCCCCCCCC)C(=O)CNC(=O)[C@@H](N)CCCN.O=C(O)C(F)(F)F.O=C(O)C(F)(F)F` [GC-035]?
A: Luciferase RLU/20 μl lysate heart (WR 2): 54 RLU/20 μl lysate; Luciferase RLU/20 μl lysate kidney (WR 2): 46 RLU/20 μl lysate; Luciferase RLU/20 μl lysate liver (WR 2): 57 RLU/20 μl lysate; Luciferase RLU/20 μl lysate lung (WR 2): 57 RLU/20 μl lysate; Luciferase RLU/20 μl lysate heart (WR 10): 51 RLU/20 μl lysate; Luciferase RLU/20 μl lysate kidney (WR 10): 54 RLU/20 μl lysate; Luciferase RLU/20 μl lysate liver (WR 10): 50 RLU/20 μl lysate; Luciferase RLU/20 μl lysate lung (WR 10): 54 RLU/20 μl lysate; Luciferase RLU/20 μl lysate spleen (WR 10, spleen): 54 RLU/20 μl lysate; Luciferase RLU/20 μl lysate spleen (WR (lipid to DNA) 2, spleen): 70 RLU/20 μl lysate

Q: Which results are given for `CCCCCCCCCCCCCCCCCC(CCCCCCCCCCCCCCCCC)OC(=O)NCCNC(=O)[C@@H](N)CCCN.O=C(O)C(F)(F)F.O=C(O)C(F)(F)F` [GC-030]?
A: Luciferase activity heart (WR 1): 1,675 RLU/organ; Luciferase activity kidney (WR 1): 1,392 RLU/organ; Luciferase activity liver (WR 1): 3,642 RLU/organ; Luciferase activity lung (WR 1): 3,308 RLU/organ; Luciferase activity spleen (WR 1, spleen): 23,308 RLU/organ; Luciferase RLU/20 μl lysate heart (WR 2): 48 RLU/20 μl lysate; Luciferase activity heart (WR 2): 1,367 RLU/organ; Luciferase RLU/20 μl lysate kidney (WR 2): 51 RLU/20 μl lysate; Luciferase activity kidney (WR 2): 1,458 RLU/organ; Luciferase RLU/20 μl lysate liver (WR 2): 70 RLU/20 μl lysate; Luciferase activity liver (WR 2): 3,417 RLU/organ; Luciferase RLU/20 μl lysate lung (WR 2): 88 RLU/20 μl lysate; Luciferase activity lung (WR 2): 1,600 RLU/organ; Luciferase activity spleen (WR 2, spleen): 73,442 RLU/organ; Luciferase activity heart (WR 6): 817 RLU/organ; Luciferase activity kidney (WR 6): 792 RLU/organ; Luciferase activity liver (WR 6): 1,550 RLU/organ; Luciferase activity lung (WR 6): 8,808 RLU/organ; Luciferase activity spleen (WR 6, spleen): 38,058 RLU/organ; Luciferase RLU/20 μl lysate heart (WR 10): 67 RLU/20 μl lysate; Luciferase activity heart (WR 10): 3,450 RLU/organ; Luciferase RLU/20 μl lysate kidney (WR 10): 105 RLU/20 μl lysate; Luciferase activity kidney (WR 10): 1,367 RLU/organ; Luciferase RLU/20 μl lysate liver (WR 10): 1,093 RLU/20 μl lysate; Luciferase activity liver (WR 10): 114,425 RLU/organ; Luciferase RLU/20 μl lysate lung (WR 10): 1,396 RLU/20 μl lysate; Luciferase activity lung (WR 10): 35,117 RLU/organ; Luciferase RLU/20 μl lysate spleen (WR 10, spleen): 5,305 RLU/20 μl lysate; Luciferase activity spleen (WR 10, spleen): 446,650 RLU/organ; Luciferase activity heart (WR 20): 4,783 RLU/organ; Luciferase activity kidney (WR 20): 17,583 RLU/organ; Luciferase activity liver (WR 20): 1,003,125 RLU/organ; Luciferase activity lung (WR 20): 689,475 RLU/organ; Luciferase activity spleen (WR 20, spleen): 2,479,217 RLU/organ; Luciferase RLU/20 μl lysate spleen (WR (lipid to DNA) 2, spleen): 3,692 RLU/20 μl lysate; luciferase activity in spleen relative to DOTAP:Chol standard (weight ratio 20, spleen): 36 fold

Q: Which results are given for `CCCCCCCCCCCCCCCCCC(CCCCCCCCCCCCCCCCC)OC(=O)NCCNC(=O)[C@H](CCCNCCCN)NCCCN.O=C(O)C(F)(F)F.O=C(O)C(F)(F)F.O=C(O)C(F)(F)F.O=C(O)C(F)(F)F` [GC-029]?
A: Luciferase RLU/20 μl lysate heart (WR 2): 42 RLU/20 μl lysate; Luciferase activity heart (WR 2): 933 RLU/organ; Luciferase RLU/20 μl lysate kidney (WR 2): 34 RLU/20 μl lysate; Luciferase activity kidney (WR 2): 1,000 RLU/organ; Luciferase RLU/20 μl lysate liver (WR 2): 31 RLU/20 μl lysate; Luciferase activity liver (WR 2): 825 RLU/organ; Luciferase RLU/20 μl lysate lung (WR 2): 41 RLU/20 μl lysate; Luciferase activity lung (WR 2): 967 RLU/organ; Luciferase activity spleen (WR 2, spleen): 908 RLU/organ; Luciferase RLU/20 μl lysate heart (WR 10): 34 RLU/20 μl lysate; Luciferase activity heart (WR 10): 858 RLU/organ; Luciferase RLU/20 μl lysate kidney (WR 10): 42 RLU/20 μl lysate; Luciferase activity kidney (WR 10): 808 RLU/organ; Luciferase RLU/20 μl lysate liver (WR 10): 65 RLU/20 μl lysate; Luciferase activity liver (WR 10): 1,408 RLU/organ; Luciferase RLU/20 μl lysate lung (WR 10): 72 RLU/20 μl lysate; Luciferase activity lung (WR 10): 1,017 RLU/organ; Luciferase RLU/20 μl lysate spleen (WR 10, spleen): 196 RLU/20 μl lysate; Luciferase activity spleen (WR 10, spleen): 1,992 RLU/organ; Luciferase RLU/20 μl lysate spleen (WR (lipid to DNA) 2, spleen): 31 RLU/20 μl lysate

Q: With `CCCCCCCCCCCCCCCCCCN(CCCCCCCCCCCCCCCCCC)C(=O)C(CSSCC(NC(=O)C(CCCNCCCN)NCCCN)C(=O)N(CCCCCCCCCCCCCCCCCC)CCCCCCCCCCCCCCCCCC)NC(=O)C(CCCNCCCN)NCCCN.O=C(O)C(F)(F)F.O=C(O)C(F)(F)F.O=C(O)C(F)(F)F.O=C(O)C(F)(F)F.O=C(O)C(F)(F)F.O=C(O)C(F)(F)F.O=C(O)C(F)(F)F.O=C(O)C(F)(F)F` (stereo not shown) [GC-026] as the compound, how does the “Luciferase RLU/20 μl lysate heart” value (WR 2) read?
A: The value was 42 RLU/20 μl lysate.

Q: And the “Luciferase RLU/20 μl lysate kidney” value (WR 2)?
A: The value was 41 RLU/20 μl lysate.

Q: What about the “Luciferase RLU/20 μl lysate liver” value (WR 2) of the same compound?
A: Its value is 39 RLU/20 μl lysate.

Q: And the “Luciferase RLU/20 μl lysate lung” value (WR 2)?
A: Its value is 40 RLU/20 μl lysate.

Q: What about the “Luciferase RLU/20 μl lysate heart” value (WR 10) of the same compound?
A: The value was 0 RLU/20 μl lysate.

Q: What about the “Luciferase RLU/20 μl lysate kidney” value (WR 10) of the same compound?
A: Its value is 0 RLU/20 μl lysate.

Q: And the “Luciferase RLU/20 μl lysate liver” value (WR 10)?
A: The value was 0 RLU/20 μl lysate.

Q: What about the “Luciferase RLU/20 μl lysate lung” value (WR 10) of the same compound?
A: Its value is 0 RLU/20 μl lysate.

Q: And the “Luciferase RLU/20 μl lysate spleen” value (WR 10, spleen)?
A: Its value is 0 RLU/20 μl lysate.

Q: What about the “Luciferase RLU/20 μl lysate spleen” value (WR (lipid to DNA) 2, spleen) of the same compound?
A: The value was 40 RLU/20 μl lysate.

Q: Which results are given for `CC(C)CCC[C@@H](C)[C@H]1CC[C@H]2[C@@H]3CC=C4C[C@@H](OC(=O)NCCNC(=O)[C@@H](N)CCCN)CC[C@]4(C)[C@H]3CC[C@]12C` [GC-003]?
A: Luciferase RLU/20 μl lysate heart (WR 2): 37 RLU/20 μl lysate; Luciferase RLU/20 μl lysate kidney (WR 2): 38 RLU/20 μl lysate; Luciferase RLU/20 μl lysate liver (WR 2): 33 RLU/20 μl lysate; Luciferase RLU/20 μl lysate lung (WR 2): 37 RLU/20 μl lysate; Luciferase RLU/20 μl lysate heart (WR 10): 39 RLU/20 μl lysate; Luciferase RLU/20 μl lysate kidney (WR 10): 40 RLU/20 μl lysate; Luciferase RLU/20 μl lysate liver (WR 10): 73 RLU/20 μl lysate; Luciferase RLU/20 μl lysate lung (WR 10): 69 RLU/20 μl lysate; Luciferase RLU/20 μl lysate spleen (WR 10, spleen): 65 RLU/20 μl lysate; Luciferase RLU/20 μl lysate spleen (WR (lipid to DNA) 2, spleen): 36 RLU/20 μl lysate

Q: What does the source list for `CCCCCCCCCCCCCCCCCCN(CCCCCCCCCCCCCCCCCC)C(=O)[C@H](CCC(=O)NCCN(CCNC(=O)CC[C@H](NC(=O)[C@H](CCCNCCCN)NCCCN)C(=O)N(CCCCCCCCCCCCCCCCCC)CCCCCCCCCCCCCCCCCC)CCNC(=O)CC[C@H](NC(=O)[C@H](CCCNCCCN)NCCCN)C(=O)N(CCCCCCCCCCCCCCCCCC)CCCCCCCCCCCCCCCCCC)NC(=O)[C@H](CCCNCCCN)NCCCN.O=C(O)C(F)(F)F.O=C(O)C(F)(F)F.O=C(O)C(F)(F)F.O=C(O)C(F)(F)F.O=C(O)C(F)(F)F.O=C(O)C(F)(F)F.O=C(O)C(F)(F)F.O=C(O)C(F)(F)F.O=C(O)C(F)(F)F.O=C(O)C(F)(F)F.O=C(O)C(F)(F)F.O=C(O)C(F)(F)F.O=C(O)C(F)(F)F` [GC-071]?
A: Luciferase RLU/20 μl lysate heart (WR 2): 60 RLU/20 μl lysate; Luciferase RLU/20 μl lysate kidney (WR 2): 58 RLU/20 μl lysate; Luciferase RLU/20 μl lysate liver (WR 2): 59 RLU/20 μl lysate; Luciferase RLU/20 μl lysate lung (WR 2): 56 RLU/20 μl lysate; Luciferase RLU/20 μl lysate heart (WR 10): 61 RLU/20 μl lysate; Luciferase RLU/20 μl lysate kidney (WR 10): 67 RLU/20 μl lysate; Luciferase RLU/20 μl lysate liver (WR 10): 531 RLU/20 μl lysate; Luciferase RLU/20 μl lysate lung (WR 10): 73 RLU/20 μl lysate; Luciferase RLU/20 μl lysate spleen (WR 10, spleen): 286 RLU/20 μl lysate; Luciferase RLU/20 μl lysate spleen (WR (lipid to DNA) 2, spleen): 61 RLU/20 μl lysate
